A word on the Kd: it is the equilibrium constant for the complex coming apart. A higher Kd goes with lower affinity. As usually defined, the IC50 is the concentration that inhibits the measured activity by half. Higher therefore signals weaker potency in that assay.

This note sets out measurements from patent US9187497B2, “Substituted pyrido[3,2-e]pyrrolo[1,2-a]pyrazines as inhibitors of poly(ADP-ribose)polymerase (PARP)” (Takeda Phamaceutical Company Limited, priority 2009, dated 2015).

For one test, the system named is Jurkat cell line. As to the kind of experiment: PARP cellular chemopotentiation assay (MTS cell viability with and without TMZ). The class given is cell-based. Particulars: ratio of EC50 for inhibition of cell viability without and with 100 μM TMZ; Jurkat cells, 96 hours of treatment. The gist of the method: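 Jurkat cells, 10,000/well, pre-cultured 24 h, then treated 96 h with serial compound dilutions (0.5% DMSO) with or without 100 μM TMZ. Viability by MTS conversion (OD490), normalized to DMSO controls; EC50 from curve fits, PF50 = EC50 without TMZ / EC50 with TMZ.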

Test [1] deals with T1, catalytic domain of Human PARP (Homo sapiens, UniProt P09874).
T1 construct: The catalytic domain of Human PARP was cloned and prepared; made in house
T1 sequence (P09874 788-1014 limits assumed): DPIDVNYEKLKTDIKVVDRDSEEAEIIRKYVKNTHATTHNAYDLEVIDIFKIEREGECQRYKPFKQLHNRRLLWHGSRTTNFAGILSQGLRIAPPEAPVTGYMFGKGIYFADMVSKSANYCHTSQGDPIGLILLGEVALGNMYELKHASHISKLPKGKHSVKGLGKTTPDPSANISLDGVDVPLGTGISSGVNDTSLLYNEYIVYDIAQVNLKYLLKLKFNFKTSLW
As to the kind of experiment: Biacore surface plasmon resonance affinity assay (dissociation constant KD). Format: binding. Conditions: pKD=-log(KD), KD in molar concentration; Biacore T100, 25° C. As for the experimental part:
Dissociation Constant (KD) from Surface Plasmon Resonance
The catalytic domain of Human PARP was cloned and prepared as described in Kinoshita, T.; Nakanishi, I.; Warizaya, M.; Iwashita, A.; Kido, Y.; Hattori, K. and Fujii, T. 2006 FEBS Letters 556, 43-46. Purified enzyme was stored at −80° C. in 25 mM Tris(hydroxymethyl)aminomethane (Tris) pH 7.4, 150 mM NaCl, 2 mM dithiothreitol (DTT) at a concentration of 6 mg/ml.
Biacore affinity assays for test compounds were conducted on a Biacore T100 (GE Healthcare) as follows. A Series S Sensor Chip CM5 (part number BR-1006-68, GE Healthcare) was activated for amide coupling with an Amine Coupling Kit (part number BR-1000-50, GE Healthcare) as described by the manufacturer. The mobile phase buffer consisted of Biacore buffer HBS-P (part number BR-1003-68, GE Healthcare) supplemented with 1% v/v dimethylsulfoxide (DMSO), 0.5 mM Tris(2-carboxyethyl)phosphine hydrochloride (TCEP), and 5 mM MgCl2. Enzyme samples (2 μl/6 mg/ml) stored at −80° C. were diluted to 0.080 mg/ml with 10 mM 4-morpholineethanesulfonic acid (MES) pH 6.5 and then mounted on the activated Biacore CM5 chip at a flow rate of 10 μl/min for 240 seconds. When successfully mounted, a signal of approximately 8,000 reflective units was observed. Test compounds were diluted 9 times 2-fold serially in mobile phase buffer (listed above) at 1% v/v DMSO final to generate a concentration gradient bracketing their anticipated KDs. Biacore mounted PARP was given a 1 minute exposure (association phase) to various concentrations of test compounds to observe a steady state equilibrium or an on rate. The exposure was followed with a dissociation phase of 5 minutes. The association and dissociation phases were at a flow rate of 50 μl/min and a temperature of 25° C.
Parameters Rmax (response at saturation) and KD (binding constant) were calculated through a nonlinear least squares fitting of the equation to the data by use of the Biacore T100 analysis software.
Parameter optimization was through a nonlinear least squares analysis of the association phase Response=Rmax*(1−exp(−(kon[cmpd]+koff)*t)) and dissociation phase Response=[…] by use of the Biacore T100 analysis software. The binding constant KD was calculated from the definition KD=koff/kon
In general terms: Surface plasmon resonance follows binding to a sensor surface in real time, without labels.

A further test concerns the target T2, PARP (Homo sapiens, UniProt P09874).
T2 construct: purchased Trevigen 4684-096-01 (enzyme); kit 4684-096-K HT
As to the kind of experiment: PARP ELISA colorimetric assay of inhibition of PARP catalytic activity (IC50). Particulars: pIC50=-log(IC50), IC50 in molar concentration; ELISA-based PARP kit, 10 minutes of catalysis. The class given is biochemical. The gist of the method:
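Human PARP was added as a 0.1 nM solution to histone-coated wells with compound for a 10-min ambient preincubation. The reaction was started with 100 μM NAD+ solution plus activated DNA and run 10 min. PAR formation was detected by anti-PAR ELISA, colorimetric. IC50 came from a 12-point, 3-fold gradient fitted by nonlinear least squares to a Hill equation.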
A general note: An ELISA detects its analyte on a solid surface through an enzyme-linked reagent.

Bounds are passed on as bounds.

T2 sequence (P09874 whole entry): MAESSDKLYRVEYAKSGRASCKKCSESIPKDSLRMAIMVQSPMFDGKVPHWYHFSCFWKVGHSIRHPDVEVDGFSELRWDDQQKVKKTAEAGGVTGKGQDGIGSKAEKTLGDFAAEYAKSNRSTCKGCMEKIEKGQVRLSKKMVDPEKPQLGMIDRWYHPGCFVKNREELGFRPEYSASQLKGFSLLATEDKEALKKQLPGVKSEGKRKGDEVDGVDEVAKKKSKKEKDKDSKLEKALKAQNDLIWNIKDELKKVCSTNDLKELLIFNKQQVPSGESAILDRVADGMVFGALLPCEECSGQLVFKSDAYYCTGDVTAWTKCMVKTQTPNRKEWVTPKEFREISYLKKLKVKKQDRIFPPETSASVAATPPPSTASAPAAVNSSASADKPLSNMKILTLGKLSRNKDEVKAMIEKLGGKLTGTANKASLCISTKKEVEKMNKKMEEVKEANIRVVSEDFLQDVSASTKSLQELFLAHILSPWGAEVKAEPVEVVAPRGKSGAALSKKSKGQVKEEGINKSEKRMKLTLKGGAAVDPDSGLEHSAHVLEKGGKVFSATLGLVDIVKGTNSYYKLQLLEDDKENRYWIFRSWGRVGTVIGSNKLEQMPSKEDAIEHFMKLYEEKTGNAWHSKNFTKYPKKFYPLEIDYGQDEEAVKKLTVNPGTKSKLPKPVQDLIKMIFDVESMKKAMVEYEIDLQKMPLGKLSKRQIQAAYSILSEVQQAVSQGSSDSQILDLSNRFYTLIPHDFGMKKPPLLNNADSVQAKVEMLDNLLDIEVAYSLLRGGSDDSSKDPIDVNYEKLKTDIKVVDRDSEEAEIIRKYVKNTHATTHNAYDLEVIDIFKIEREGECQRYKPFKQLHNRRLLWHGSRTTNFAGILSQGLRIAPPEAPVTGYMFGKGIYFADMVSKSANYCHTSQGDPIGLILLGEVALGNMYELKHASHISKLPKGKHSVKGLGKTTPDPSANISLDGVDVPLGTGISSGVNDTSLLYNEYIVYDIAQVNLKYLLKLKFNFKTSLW

As for `O=C1Nc2cc(CN3CCC(c4ccc(Cl)cc4)CC3)cnc2N2CCC[C@@H]12` [Compound 3, (S)-3-((4-(4-chlorophenyl)piperidin-1-yl)methyl)-6a,7,8,9-tetrahydropyrido[3,2-e]pyrrolo[1,2-a]pyrazin-6(5H)-one], the PF50 in the test on Jurkat cell line is listed as greater than 10. The compound further had a Kd in test [1] of 31.6 to 794 nM.
With `CCNC(=O)c1ccc(N2CCN(Cc3cnc4c(c3)NC(=O)[C@@H]3CCCN43)CC2)cc1` [Compound 10, (S)—N-ethyl-4-(4-((6-oxo-5,6,6a,7,8,9-hexahydropyrido[3,2-e]pyrrolo[1,2-a]pyrazin-3-yl)methyl)piperazin-1-yl)benzamide], the PF50 in the test with Jurkat cell line is reported as greater than 5000. In addition, the Kd in test [1] was less than 31.6 nM. Moreover, the IC50 against PARP is no more than 12.6 nM.
Consider `C[C@H]1C(=O)Nc2cc(CN3CC=C(c4ccc(Cl)cc4)CC3)cnc2N1C` [Compound 52, (S)-7-((4-(4-chlorophenyl)-5,6-dihydropyridin-1(2H)-yl)methyl)-3,4-dimethyl-3,4-dihydropyrido[3,2-b]pyrazin-2(1H)-one], for which, in the test on Jurkat cell line, the PF50 entry is “≧0”. In test [1], this compound showed a Kd of less than 31.6 nM.
Consider `C[C@H]1C(=O)Nc2cc(CN3CCC(c4ccc(Cl)cc4)CC3)cnc2N1C` [Compound 53, (S)-7-((4-(4-chlorophenyl)piperidin-1-yl)methyl)-3,4-dimethyl-3,4-dihydropyrido[3,2-b]pyrazin-2(1H)-one], for which, in the test with Jurkat cell line, the PF50 entry is reported as “≧0”. In test [1], this compound had a Kd of 31.6 to 794 nM. This compound showed an IC50 against PARP of no less than 50.1 nM.
On to `C[C@H]1C(=O)Nc2cc(CN3CCC(c4ccccc4)CC3)cnc2N1C` [Compound 54, (S)-3,4-dimethyl-7-((4-phenylpiperidin-1-yl)methyl)-3,4-dihydropyrido[3,2-b]pyrazin-2(1H)-one], for which the Kd in test [1] was no less than 1000 nM.
Take `C[C@H]1C(=O)Nc2cc(CN3CC=C(c4ccc(F)cc4)CC3)cnc2N1C` [Compound 56, (S)-7-((4-(4-fluorophenyl)-5,6-dihydropyridin-1(2H)-yl)methyl)-3,4-dimethyl-3,4-dihydropyrido[3,2-b]pyrazin-2(1H)-one]: in the test on Jurkat cell line, the PF50 result is “≧0”. In test [1], the Kd was less than 31.6 nM.
As for `C[C@H]1C(=O)Nc2cc(CN3CC=C(c4ccccc4)CC3)cnc2N1C` [Compound 57, (S)-3,4-dimethyl-7-((4-phenyl-5,6-dihydropyridin-1(2H)-yl)methyl)-3,4-dihydropyrido[3,2-b]pyrazin-2(1H)-one], the PF50 result in the test on Jurkat cell line was “≧0”. In test [1], the Kd was less than 31.6 nM.
In test [1], `C[C@H]1C(=O)Nc2cc(CN3CCN(c4cccc(Cl)c4)CC3)cnc2N1C` [Compound 58, (S)-7-((4-(3-chlorophenyl)piperazin-1-yl)methyl)-3,4-dimethyl-3,4-dihydropyrido[3,2-b]pyrazin-2(1H)-one] had a Kd of no less than 1000 nM.
Regarding `C[C@H]1C(=O)Nc2cc(CN3CCN(c4ccc(Cl)cc4)CC3)cnc2N1C` [Compound 59, (S)-7-((4-(4-chlorophenyl)piperazin-1-yl)methyl)-3,4-dimethyl-3,4-dihydropyrido[3,2-b]pyrazin-2(1H)-one], in the test on Jurkat cell line, the PF50 entry is given as “≧0”. The same compound gave a Kd in test [1] of less than 31.6 nM.
As for `CC(C)N1c2ncc(CN3CC=C(c4ccc(Cl)cc4)CC3)cc2NC(=O)[C@@H]1C` [Compound 60, (S)-7-((4-(4-chlorophenyl)-5,6-dihydropyridin-1(2H)-yl)methyl)-4-isopropyl-3-methyl-3,4-dihydropyrido[3,2-b]pyrazin-2(1H)-one], the Kd in test [1] was no less than 1000 nM.
The same measure, in the same setting: then `CC(C)N1c2ncc(CN3CCN(c4ccc(Cl)cc4)CC3)cc2NC(=O)[C@@H]1C` [Compound 61, (S)-7-((4-(4-chlorophenyl)piperazin-1-yl)methyl)-4-isopropyl-3-methyl-3,4-dihydropyrido[3,2-b]pyrazin-2(1H)-one], with no less than 1000 nM.
On to `CCN1c2ncc(CN3CC=C(c4ccc(Cl)cc4)CC3)cc2NC(=O)[C@@H]1C` [Compound 63, (S)-7-((4-(4-chlorophenyl)-5,6-dihydropyridin-1(2H)-yl)methyl)-4-ethyl-3-methyl-3,4-dihydropyrido[3,2-b]pyrazin-2(1H)-one], for which the PF50 result with Jurkat cell line is “≧0”. This compound had a Kd in test [1] of 31.6 to 794 nM.
Regarding `O=C1Nc2cc(CN3CC=C(c4ccc(Cl)cc4)CC3)cnc2N2CCCCC12` (stereo not shown) [Compound 65, 3-((4-(4-chlorophenyl)-5,6-dihydropyridin-1(2H)-yl)methyl)-7,8,9,10-tetrahydro-5H-dipyrido[1,2-a:3′,2′-e]pyrazin-6(6aH)-one], the PF50 in the test with Jurkat cell line was greater than 10. For the same compound, the Kd in test [1] was no less than 1000 nM. This compound had an IC50 against PARP of no more than 12.6 nM.
The corresponding values for `O=C1Nc2cc(CN3CCN(c4ccc(Cl)cc4)CC3)cnc2N2CCCCC12` (stereo not shown) [Compound 66, 3-((4-(4-chlorophenyl)piperazin-1-yl)methyl)-7,8,9,10-tetrahydro-5H-dipyrido[1,2-a:3′,2′-e]pyrazin-6(6aH)-one] are greater than 10, no less than 1000 nM and 15.8 to 39.8 nM.
With `O=C1Nc2cc(CN3CCC(c4ccc(Cl)cc4)CC3)cnc2N2CCCCC12` (stereo not shown) [Compound 67, 3-((4-(4-chlorophenyl)piperidin-1-yl)methyl)-7,8,9,10-tetrahydro-5H-dipyrido[1,2-a:3′,2′-e]pyrazin-6(6aH)-one], the PF50 result with Jurkat cell line is “≧0”. Moreover, the Kd in test [1] is less than 31.6 nM. The compound further showed an IC50 at PARP of 15.8 to 39.8 nM.
For `CN1CC(=O)Nc2cc(CN3CC=C(c4ccc(Cl)cc4)CC3)cnc21` [Compound 80, 7-((4-(4-chlorophenyl)-5,6-dihydropyridin-1(2H)-yl)methyl)-4-methyl-3,4-dihydropyrido[2,3-b]pyrazin-2(1H)-one], in the test with Jurkat cell line, the PF50 result was “≧0”. This compound also gave a Kd in test [1] of less than 31.6 nM. This compound also gave an IC50 at PARP of no less than 50.1 nM.
`CN1CC(=O)Nc2cc(CN3CCN(c4ccc(Cl)cc4)CC3)cnc21` [Compound 81, 7-((4-(4-chlorophenyl)piperazin-1-yl)methyl)-4-methyl-3,4-dihydropyrido[2,3-b]pyrazin-2(1H)-one]: in the test on Jurkat cell line, the PF50 result is “≧0”. Besides, the Kd in test [1] is 31.6 to 794 nM. Moreover, on PARP, the 50% inhibitory concentration (IC50) was no less than 50.1 nM.
The corresponding values for `CN1CC(=O)Nc2cc(CN3CCC(c4ccc(Cl)cc4)CC3)cnc21` [Compound 82, 7-((4-(4-chlorophenyl)piperidin-1-yl)methyl)-4-methyl-3,4-dihydropyrido[2,3-b]pyrazin-2(1H)-one] are “≧0”, 31.6 to 794 nM and no less than 50.1 nM.
Turning to `O=C1CN(Cc2ccccc2)c2ncc(CN3CC=C(c4ccc(Cl)cc4)CC3)cc2N1` [Compound 83, 4-benzyl-7-((4-(4-chlorophenyl)-5,6-dihydropyridin-1(2H)-yl)methyl)-3,4-dihydropyrido[2,3-b]pyrazin-2(1H)-one], in the test with Jurkat cell line, the PF50 result was “≧0”. The compound also had a Kd in test [1] of no less than 1000 nM. Moreover, the IC50 on PARP is 15.8 to 39.8 nM.
Turning to `CNC(=O)c1ccc(N2CCN(Cc3cnc4c(c3)NC(=O)[C@@H]3CCCN43)CC2)c(Cl)c1` [Compound 136, (S)-3-chloro-N-methyl-4-(4-((6-oxo-5,6,6a,7,8,9-hexahydropyrido[3,2-e]pyrrolo[1,2-a]pyrazin-3-yl)methyl)piperazin-1-yl)benzamide], the PF50 in the test with Jurkat cell line was greater than 5000. This compound had an IC50 at PARP of no more than 12.6 nM.
The corresponding values for `CCNC(=O)c1ccc(N2CCN(Cc3cnc4c(c3)NC(=O)[C@@H]3CCCN43)CC2)c(C)c1` [Compound 137, (S)—N-ethyl-3-methyl-4-(4-((6-oxo-5,6,6a,7,8,9-hexahydropyrido[3,2-e]pyrrolo[1,2-a]pyrazin-3-yl)methyl)piperazin-1-yl)benzamide] are greater than 5000 and no more than 12.6 nM.
On the same counts, the results for `CNC(=O)c1ccc(N2CCN(Cc3cnc4c(c3)NC(=O)[C@@H]3CCCN43)CC2)c(C)c1` [Compound 141, (S)—N,3-dimethyl-4-(4-((6-oxo-5,6,6a,7,8,9-hexahydropyrido[3,2-e]pyrrolo[1,2-a]pyrazin-3-yl)methyl)piperazin-1-yl)benzamide] are greater than 500 and no more than 12.6 nM.
